The values below come from patent US20090041876A1, “OIL/FAT-CONTAINING COMPOSITION FOR SUPPRESSION OF CARCINOGENESIS” (KANEKA CORPORATION, priority 2005, published 2009).

Structures can show the parent of a compound that is named as a salt. Marks after values point to notes of the source that are not given here.

Series [1] is described as follows: liver medium-term bioassay (Ito test): liver weights, general status, light and electron microscopical examination of livers. The class given is in vivo, rat. The note with it: F344 male rats, DEN +, 500 ppm with feed (positive control). As for the experimental part:
Diethylnitrosamine (DEN) was administered intraperitoneally to the rats once at a dose of 200 mg/kg for the purpose of an initiation treatment for liver carcinogenesis, and from two weeks after the administration, a test substance, i.e., the MCT solution was forcibly administered orally at doses of 0 (control group), 150, 300, and 600 mg/kg once a day seven times/week for six weeks (Groups 1 to 4). The doses of the MCT solution used in this test (150, 300, and 600 mg/kg) correspond to 45, 90, and 180 mg/kg body weight in terms of a licorice extract serving as an effective ingredient. In addition, phenobarbital sodium salt (S. PB) was administered with a feed to a positive control group at a concentration of 500 ppm (Group 5). […]
(§1) After a lapse of the third week of the experiment (one week after the start of test substance administration), partial hepatectomy was performed for all the animals, and lesions in the livers were amplified. […] The areas of the liver sections and the numbers and areas of GST-P-positive cell foci with diameters of 0.2 mm or more were measured using a pathological specimen image analyzer IPAP-WIN (Sumika Technoservice Corporation), and then the areas and numbers per cm^2 of the liver sections were calculated to perform a quantitative analysis. […]

For a further series, the system named is GST-P-positive cell foci. The series can be described thus: liver medium-term bioassay (Ito test): quantitative analysis of GST-P-positive cell foci in rat liver. In kind it is in vivo. On the procedure:
In order to examine the effect of the MCT solution of Example 1 on carcinogenesis, a search using a liver medium-term bioassay (Ito test) was performed. This test method is one of the two-step carcinogenesis models using rodents and is employed for rat liver. This test method has been used to search for 313 or more chemical substances, and is considered to be a reliable and useful method of searching for carcinogens or carcinogenesis-suppressing substances. Therefore, this test is accepted as an alternative to a conventional long-term carcinogenicity test in the Japan/US/EU Trilateral International Conference on Harmonization of Technical Requirements for Registration of Pharmaceuticals for Human Use (ICH). […]
as §1

Turning to `CCC1(c2ccccc2)C(=O)NC(=O)NC1=O` [Phenobarbital Sodium, phenobarbital sodium salt], in series [1], the “Liver weight, Absolute weight” value is recorded as 9.2781 ± 0.4913 g and the “Liver weight, Relative weight” value turned out to be 3.3527 ± 0.1032 %. For the same compound, in the series on GST-P-positive cell foci (Group 5, DEN +, 500 ppm with feed), the “number and area per unit area of GST-P-positive cell foci versus control” value is “evidently high levels”. In addition, in the series with GST-P-positive cell foci (rat liver, DEN +, 500 ppm with feed (positive control)), the “GST-P-positive cell foci, Area” value is reported as 0.541 ± 0.160** mm^2/cm^2.
